Values joined by “and” are separate entries in the source; they are usually repeats but may differ in a detail not shown here. Identical values can stand only once.
How the values were obtained:
[1] = system: swine Oesophagostomum (Oesophagostomum dentatum); experiment: Test of anthelmintic effect against swine Oesophagostomum in naturally infected pigs, E.P.G. on 7th day (Test Examples A8, B8, C8, D8); format: in vivo; settings: pigs
Description: Six pigs infected with swine Oesophagostomum (naturally infected pigs) were employed by grouping them into groups each of two pigs.
As a control, only gelatin capsules were administered orally to the two pigs.
(§1) Before administration and on the 7th day after administration, fecal matter testing was conducted to calculate the E.P.G., and the anthelmintic effect was judged by the changing of the E.P.G. to negative.

[2] = system: fowl roundworm (As. galli); experiment: Anthelmintic test in chickens artificially infected with fowl roundworm, compound added to feed, E.P.G. and worm count up to 21st day (Test Examples A2, B2, C2, D2); format: in vivo, Ascaridia galli; settings: Ascaridia galli, po, 504 h, chickens, worm count on 21st day, one value per chicken, read-out: Anthelmintic effect
[3] = system: canine whipworm (Trichuris vulpis); experiment: Anthelmintic test in naturally infected dogs with mixed infections, E.P.G. on 7th day: canine whipworm (Test Examples A3, B3, C3, D3); format: in vivo
Description: Three dogs with mixed infections by canine whipworm (Trichuris vulpis), canine hookworm (Ancylostoma caninum) and canine roundworm (Toxocara canis) (naturally infected dogs) were employed in a group of two and a group of one.
The compound provided for the test was Compound No.Al, and 20 mg/Kg thereof was placed in a gelatin capsule per 1 Kg of body weight, and administered orally to the two dogs. As control, only a gelatin capsule was administered orally to the one dog.
as §1
As control, only gelatin capsules were administered orally to the one dog.
The same method as in Test Example A3, but the compound provided for the test was Compound No. Cl. 30 mg/Kg of this compound was placed in a gelatin capsule per 1 Kg of body weight and administered orally to the two dogs. As control, only gelatin capsules were administered orally to the one dog.

[4] = system: Diphyllobothrium erinacei; experiment: Test of anthelmintic effect against Diphyllobothrium erinacei (tapeworm) in experimentally infected cats (Test Examples A5, B5, C5, D5)
[5] = system: Liver fluke; Fasciola hepatica (F. hepatica); experiment: Test of anthelmintic effect against rat infected experimentally with liver fluke (Test Examples A11, B11, C11, D11); format: in vivo
[6] = system: stomach worm (Haemonchus controtus); experiment: Anthelmintic test against cow stomach worm in naturally infected cows, E.P.G. on 7th day (Test Examples A6, B6, C6, D6); format: in vivo; settings: cows
Description: Three cows infected with stomach worm (naturally infected cows) were employed by grouping them into a group of two and a group of one.
(§2) As control, only gelatin capsules were administered orally to the one cow.
as §1, §2, §2

[7] = system: fowl roundworm (Ascaridia galli); experiment: Anthelmintic test in chickens artificially infected with fowl roundworm, single oral dose in gelatin capsule, worm bodies counted within 48 hours (Test Examples A1, B1, C1, D1); format: in vivo; settings: Ascaridia galli, po, 48 h, chickens, one value per chicken (No.1-3), read-out: Anthelmintic effect after 48 hours
In short: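 Anthelmintic percentage derived from counts of worms passed within 48 h plus worms left in the intestine after killing at 48 h. Infection confirmed by fecal examination in three-bird groups; compound given orally once in gelatin capsules at 10/20 (A1, B1), 30/50 (C1) or 15/30 (D1) mg/kg.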

## C=CCN(OC)C(C)=O [Compound B1, N-allyl-N-acetyl-O-methylhydroxylamine]
[1]; 20 mg/Kg orally once, baseline, one value per pig, 20 mg/kg
  Change of E.P.G. Before administration: 1,200 E.P.G. and 2,600 E.P.G.
[1]; 20 mg/Kg orally once, one value per pig
  Change of E.P.G. 7th day: 0 E.P.G.
[1]; one administration of 20 mg/Kg
  anthelmintic effect: marked anthelmintic effect
[2]; 20 ppm added to feed
  inhibition in vivo at 20 ppm: 80 to 90%
[2]; 50 ppm added to feed
  inhibition in vivo at 50 ppm: 100%
[3]; dogs with mixed infections (Trichuris vulpis, Ancylostoma caninum, Toxocara canis; statement covers all three), one administration of 30 mg/Kg
  anthelmintic effect: marked anthelmintic effect
[3]; dogs, 30 mg/Kg orally once, Trichuris vulpis, baseline, one value per dog, 30 mg/kg
  Change of E.P.G. Before administration: 5,100 E.P.G. and 2,700 E.P.G.
[3]; dogs, 30 mg/Kg orally once, Trichuris vulpis, one value per dog
  Change of E.P.G. 7th day: 0 E.P.G.
[4]; cats infected with 5 plerocercoids, 50 mg/Kg x 5 times orally, autopsy ten days after administration, one value per cat
  Number of worm bodies remaining in enteron: 0
[4]; cats, 50 mg/Kg x 5 orally, one value per cat (Table B7)
  Worm egg detection on 10th day after administration: -
[4]; cats, 5 continuous administrations of 50 mg/Kg
  anthelmintic effect: marked anthelmintic effects
[5]; rat, 50 mg/Kg x 5
  Condition of fluke body: dead
  Presence or absence of fluke egg in fecal matter On 21st day after the last administration: -
[5]; rats, five administrations in a dose of 50 mg/Kg each
  anthelmintic effect: marked antihelmintic effect
[6]; 20 mg/Kg orally once, baseline, one value per cow, 20 mg/kg
  Change of E.P.G. Before administration: 2,500 E.P.G. and 3,300 E.P.G.
[6]; 20 mg/Kg orally once, one value per cow
  Change of E.P.G. 7th day: 0 E.P.G.
[6]; one administration of 20 mg/Kg
  anthelmintic effect: marked anthelmintic effect
[7]; 30 mg/Kg orally in gelatin capsule
  inhibition in vivo at 30 mg/kg: 100%
[7]; 50 mg/Kg orally in gelatin capsule
  inhibition in vivo at 50 mg/kg: 100%

From patent publication EP0103895A2, “Novel hydroxylamine derivatives, production and use thereof” (MEIJI SEIKA KABUSHIKI KAISHA, priority 1982, dated 1984)
